The results in this text go back to PubChem BioAssay AID1645848.

SMILES strings stand for the structures. Values after ≈ are worked out from the molar mass of the structure shown. Where only a bound is given, the exact number is not on record here.

For the series the following is noted: buffer; pH 7.4; 6.0 h; 150.0 µM.
As for `CCN(CC)C(=O)c1sc2c(c1C)c(=O)n(Cc1ccccc1)c(=O)n2CC(=O)Nc1ccc(OC)cc1`, the solubility (kinetic) (commonly the concentration staying in solution when a stock, usually in DMSO, is diluted into the medium) is less than 1 µg/mL.

In the case of `CCOc1ccc(CCNC(=O)c2cc3ccccc3n2Cc2cccc(C)c2)cc1OCC`, the kinetic solubility was less than 1 µg/mL.

The molecule `C#CCOc1ccc(-c2nnc(Nc3ccc(NC(C)=O)cc3)c3ccccc23)cc1` returned a kinetic solubility of less than 1 µg/mL.

Molecule `Cc1cccc(-n2cnc3cc(C(=O)N4CCCC(C(C)C)C4)ccc32)c1` (stereo not drawn) gave a solubility (kinetic) of 5.59 µg/mL (≈ 15.5 µM).

Molecule `Cc1ccc2nc(-c3cc(NC(=O)c4ccc5c(c4)OCCO5)ccc3Cl)oc2c1` displayed a kinetic solubility of less than 1 µg/mL.

Molecule `COc1cc(/C=C(\C#N)c2nc3ccccc3[nH]2)ccc1OCc1ccc(F)cc1` displayed a solubility (kinetic) of less than 1 µg/mL.

`Fc1ccc(Nc2nc(C3=CCNCC3)nc3ccccc23)cc1F` had a solubility (kinetic) of more than 50 µg/mL.

Turning to `Cc1ccc(CCNC(=O)C2CCCN(C(=O)c3cc4sccc4n3C)C2)cc1` (stereo not drawn), the kinetic solubility was 3.09 µg/mL (≈ 7.55 µM).

`CC1=C(C(=O)Nc2ccccc2)C(c2ccc[nH]2)n2ncnc2N1` (stereo not drawn) registered a solubility (kinetic) of 9.06 µg/mL (≈ 28.3 µM).

On to `O=C(O)c1ccc(Nc2nc(-c3cc4ccccc4oc3=O)cs2)cc1O`, for which the solubility (kinetic) stood at 11.7 µg/mL (≈ 30.7 µM).

`CCc1ccc(NC(=O)CSC2=Nc3ccccc3C3=NC(CC(=O)NCc4ccc5c(c4)OCO5)C(=O)N23)cc1` (stereo not drawn) returned a solubility (kinetic) of 2.36 µg/mL (≈ 4.15 µM).

Take `Cc1ccc(S(=O)(=O)NCC(=O)Nc2nc(-c3ccccc3)cs2)cc1`: the solubility (kinetic) is less than 1 µg/mL.

The molecule `Nc1nc2c(s1)C(c1cccc(F)c1F)CC(=O)N2` (stereo not drawn) came in with a solubility (kinetic) of 8.33 µg/mL (≈ 29.6 µM).

`CCOc1ccc(CCNC(=O)c2ccccc2)cc1OCC`: the kinetic solubility was found to be 29.2 µg/mL (≈ 93.3 µM).

As to `Cc1ccc(NC(=O)c2ccncc2NS(=O)(=O)c2ccc(C)cc2)cc1`, the kinetic solubility turned out to be 47.5 µg/mL (≈ 125 µM).

Molecule `CCNC(=O)c1noc(-c2cc(C(C)C)c(O)cc2O)c1-c1ccc(CN2CCOCC2)cc1` yielded a kinetic solubility of more than 69 µg/mL.

The molecule `O=C(Cn1ccn2nc3c(c2c1=O)CCCCC3)Nc1ccc2c(c1)OCO2` had a kinetic solubility of less than 1 µg/mL.

The molecule `COc1cc2cc(CN3CCC(N(C)C)C3)c(-c3cccc(Cl)c3)nc2cc1OC` (stereo not drawn) came in with a solubility (kinetic) of more than 42 µg/mL.

Molecule `O=C(CCCCn1c(=O)[nH]c2ccsc2c1=O)N1CCN(c2cccc(Cl)c2)CC1` yielded a kinetic solubility of 11.9 µg/mL (≈ 26.7 µM).

For `O=C(NCc1ccc(N2CCCC2)nc1)c1cc(Cl)ccc1O`, the kinetic solubility worked out at 1.3 µg/mL (≈ 3.93 µM).

Turning to `Cc1cc(NC(=O)c2ccc(NC(=O)Cc3ccc(Cl)c(Cl)c3)cc2)no1`, the solubility (kinetic) worked out at 1.43 µg/mL (≈ 3.55 µM).

In turn, `CC(C)COc1ccc(-c2ccc(=O)n(CC(=O)NCCc3ccccc3)n2)cc1` had a kinetic solubility of less than 1 µg/mL.

With `CCOc1ccc(N2CC(c3nc(-c4ccccn4)no3)CC2=O)cc1` (stereo not drawn), the solubility (kinetic) was more than 35 µg/mL.

In turn, `N#CC1CCN(c2nc(-c3ccc(Br)cc3)cs2)CC1` came in with a kinetic solubility of 1.46 µg/mL (≈ 4.19 µM).

`COc1cccc(N2CCN(c3ncc4c(n3)CCN(Cc3ccc(Br)cc3)C4)CC2)c1` came in with a kinetic solubility of less than 1 µg/mL.

`CN(Cc1ccccc1)C(=O)C1CCN(Cc2cccc3ccccc23)CC1` displayed a kinetic solubility of more than 55 µg/mL.

`COc1cc2c(c(OC)c1OC)-c1ccc(SC)c(=O)cc1C(N)CC2` (stereo not drawn) displayed a kinetic solubility of more than 55 µg/mL.

Turning to `CC(C)c1ccc(OCc2nc3c(n2Cc2ccccc2)C(=O)N(CC2CCOCC2)CCN3)cc1`, the solubility (kinetic) is less than 1 µg/mL.

In turn, `Fc1ccc(Nc2nccc(-c3ccncc3)n2)cc1F` displayed a kinetic solubility of 2.48 µg/mL (≈ 8.71 µM).

In turn, `CN(C)c1cccc(-c2cnc(N3CCC(C(N)=O)CC3)nc2)c1` had a solubility (kinetic) of 34.9 µg/mL (≈ 107 µM).

`COC12C(COC(N)=O)C3=C(C(=O)C(C)=C(N)C3=O)N1CC1C2N1C` (stereo not drawn) yielded a kinetic solubility of more than 51 µg/mL.

The molecule `O=[S+]([O-])(Nc1cccc2cccnc12)c1ccc(NCc2ccc(Cl)cc2O)cc1` showed a solubility (kinetic) of less than 1 µg/mL.

The molecule `Cc1ccnc(NC(=S)N2CCN(c3cc(C(F)(F)F)cc(C(F)(F)F)c3)CC2)c1` registered a solubility (kinetic) of 6.7 µg/mL (≈ 14.9 µM).

Molecule `COC(=O)c1ccc2c(c1)nc1n2[C@@H](CNC(C)=O)COC1` returned a kinetic solubility of more than 30 µg/mL.

As for `Cc1cc(C)nc(NC(=S)N2CCN(c3ccc(C(F)(F)F)cc3Cl)CC2)c1`, the kinetic solubility is 3.08 µg/mL (≈ 7.19 µM).

For `Cc1cccc(S(=O)(=O)Nc2cnccc2C(=O)Nc2nc(-c3ccccc3)cs2)c1`, the kinetic solubility came out at 21.8 µg/mL (≈ 48.3 µM).

The molecule `O=C(Nc1ccccc1C(=O)Nc1cccc(C(F)(F)F)c1)c1ccccc1` yielded a kinetic solubility of less than 1 µg/mL.

With `CCOC(=O)c1ccnc2cc(C(OCCN3CCCCC3)c3ccccc3Cl)sc12` (stereo not drawn), the kinetic solubility was 56.3 µg/mL (≈ 123 µM).

With `C=CC(=O)N1CCCN(c2cc(NCCC(=O)O)nc(-c3ccccn3)n2)CC1`, the kinetic solubility is more than 59 µg/mL.

Molecule `Cn1cc(Br)c(C2N=C(Nc3nc4ccccc4o3)NC3=C2C(=O)CCC3)n1` (stereo not drawn) displayed a kinetic solubility of 24.7 µg/mL (≈ 56.1 µM).

In the case of `O=C(CNC(=O)c1cnccn1)NC1CCCc2c1[nH]c1ccc(Cl)cc21` (stereo not drawn), the kinetic solubility amounted to 1.46 µg/mL (≈ 3.79 µM).

For `Cc1ccc(C(=O)Nc2ccc(CN3CCN(C)CC3)c(C(F)(F)F)c2)cc1C#Cc1cnc2cccnn12`, the kinetic solubility is less than 1 µg/mL.

`O=C1CCCC2=C1C(c1[nH]ncc1Cl)N=C(Nc1nc3cc([S+](=O)([O-])N4CCCC4)ccc3o1)N2` (stereo not drawn) showed a kinetic solubility of 36.2 µg/mL (≈ 70.2 µM).

In turn, `COc1ccc(-n2c(C)cc(C3=NNC(=NC4CC4)SC3)c2C)cc1` returned a kinetic solubility of 14 µg/mL (≈ 39.5 µM).

Regarding `CN(C)c1ccc(-c2cc[nH]c(=O)c2N)cc1`, the solubility (kinetic) is more than 34 µg/mL.

The molecule `O=S(=O)(Nc1ccc2ccccc2c1)c1ccc(NCc2cccc(Cl)c2O)cc1` showed a kinetic solubility of less than 1 µg/mL.

The molecule `O=C(c1cc2ccccc2[nH]1)N1CCc2c(n(Cc3cccnc3)n(CCc3ccccc3)c2=O)C1` registered a solubility (kinetic) of more than 47 µg/mL.

As for `O=C1CCCC2=C1C(c1[nH]ncc1Cl)N=C(Nc1nc3ccc(Cl)cc3o1)N2` (stereo not drawn), the kinetic solubility was 1 µg/mL (≈ 2.4 µM).

Molecule `O=C(c1cccs1)c1nonc1C(=O)c1cccs1` displayed a kinetic solubility of less than 1 µg/mL.

The molecule `O=C(Cc1ccc(Cl)c(Cl)c1)Nc1ccc(S(=O)(=O)Nc2cccc(O)c2)cc1` came in with a kinetic solubility of less than 1 µg/mL.

`O=C(c1ccc2ncccc2c1)N1CCc2c(nc3cc[nH]n3c2=O)C1` showed a kinetic solubility of 11.2 µg/mL (≈ 32.3 µM).

Molecule `Cc1ccc(S(=O)(=O)Nc2ccc(Cl)cc2C(=O)Nc2nc(-c3ccccc3)cs2)cc1` displayed a kinetic solubility of less than 1 µg/mL.

Turning to `COCCNS(=O)(=O)c1cc(-c2nn3c(C)nnc3c3ccccc23)ccc1C`, the solubility (kinetic) came to 29 µg/mL (≈ 70.4 µM).

The molecule `CCc1ccc(NC(=O)c2[nH]c(C)c(C(C)=O)c2C)cc1[S+](=O)([O-])N1CCCCCC1` returned a solubility (kinetic) of 1.19 µg/mL (≈ 2.67 µM).

For the molecule `COC(=O)CNC(=O)c1nc(-c2ccc([S+](C)(=O)[O-])cc2)c2cnccn12`, the kinetic solubility is more than 57 µg/mL.

In turn, `O=C(Cc1ccc(O)cc1)N1CC(CNc2ccccc2)C2(C1)CN(c1ccccc1)C2` (stereo not drawn) showed a solubility (kinetic) of less than 1 µg/mL.

Take `O=C1CCCC2=C1C(c1ccncc1Cl)N=C(Nc1nc3ccccc3o1)N2` (stereo not drawn): the solubility (kinetic) stood at 8.82 µg/mL (≈ 22.4 µM).

Turning to `O=C1NCc2cc(-c3cc4c(ccn4Cc4ccncc4)c(N4CCOCC4)n3)ccc21`, the kinetic solubility is more than 94 µg/mL.

`COc1ccccc1-c1csc(N2CCC(C(N)=O)CC2)n1`: the solubility (kinetic) turned out to be 3.08 µg/mL (≈ 9.7 µM).

With `CCOC(=O)c1c[nH]c2c3c(ccc2c1=O)CCCC3`, the solubility (kinetic) came out at 34 µg/mL (≈ 125 µM).

The molecule `Cc1ccc(-c2cc(C(=O)NCc3cnn(C)c3)c3cc(Br)ccc3n2)cc1` had a solubility (kinetic) of less than 1 µg/mL.

The molecule `Cc1ccc(-c2cc3c(nn2)-c2ccccc2C3=O)cc1` yielded a kinetic solubility of less than 1 µg/mL.

For `Cc1ccccc1C(=O)N1CCC(C(=O)N2CCC(N3Cc4ccccc4C3=O)CC2)CC1`, the kinetic solubility was more than 44 µg/mL.

With `CC1=C(C(=O)Nc2nccs2)C(c2ccccc2Br)N=C(Nc2nc3ccccc3o2)N1` (stereo not drawn), the kinetic solubility was less than 1 µg/mL.

In turn, `CN(C)CCOc1ccc(/C(=C(/CCCl)c2ccccc2)c2ccccc2)cc1` had a solubility (kinetic) of less than 1 µg/mL.

As to `CC(=O)c1c(C)[nH]c(C(=O)Nc2cccc(S(=O)(=O)N3CCOCC3)c2)c1C`, the kinetic solubility is more than 60 µg/mL.

Molecule `O=S(=O)(Nc1ccc(-c2cccnc2)c2cccnc12)c1cccc(C(F)(F)F)c1` had a solubility (kinetic) of less than 1 µg/mL.

For `CC[C@H]1CN2CCc3cc(OC)c(OC)cc3[C@@H]2C[C@@H]1C[C@H]1NCCc2cc(OC)c(OC)cc21`, the kinetic solubility is more than 71 µg/mL.

`CC(C)CCNC(=O)[C@H](CC(C)C)NC(=O)[C@H]1O[C@@H]1C(=O)O` came in with a solubility (kinetic) of 33 µg/mL (≈ 105 µM).

Take `COc1cccc(NC(=O)c2cc(-c3ccc(C)c(C)c3)nc3ccccc23)c1`: the solubility (kinetic) is less than 1 µg/mL.

`Cc1ccc(OCCn2c(CCNC(=O)C3CCCCC3)nc3ccccc32)cc1` showed a solubility (kinetic) of less than 1 µg/mL.

In turn, `CC(Nc1ccc([S+](=O)([O-])Nc2nccs2)cc1)c1ccccc1` (stereo not drawn) showed a kinetic solubility of 4.76 µg/mL (≈ 13.3 µM).

`COc1cccc(CNc2ccc(S(=O)(=O)Nc3nc(C)c(C)s3)cc2)c1O` displayed a kinetic solubility of 1.83 µg/mL (≈ 4.35 µM).

In turn, `COc1ccc2[nH]c3c(c2c1)CCNC31CCN(S(=O)(=O)c2c(C)noc2C)CC1` gave a kinetic solubility of 7.38 µg/mL (≈ 17.1 µM).

The molecule `CC1CCc2cc(F)ccc2N1C(=O)CSc1nnc2c(n1)[nH]c1ccccc12` (stereo not drawn) returned a kinetic solubility of less than 1 µg/mL.

Consider `CCN(CC)c1ccc(Nc2nc(Cl)ncc2Br)cc1`, for which the solubility (kinetic) was determined as 4.94 µg/mL (≈ 13.9 µM).

`O=C1CCCC2=C1C(c1[nH]ncc1Cl)N=C(Nc1nc3c(Br)cccc3o1)N2` (stereo not drawn) displayed a kinetic solubility of less than 1 µg/mL.

On to `COc1ccc(NC(=O)CCCc2nnc3n(CCC(C)C)c(=O)c4sccc4n23)cc1Cl`, for which the solubility (kinetic) is less than 1 µg/mL.

In turn, `CC[C@@](C)(Nc1ccnc(-c2c[nH]c3ncccc23)n1)C(=O)NCC(F)(F)F` had a kinetic solubility of more than 58 µg/mL.

For the molecule `c1ccc(-c2cc(Nc3nc(-c4ccncc4)nc4ccccc34)n[nH]2)cc1`, the solubility (kinetic) was less than 1 µg/mL.

Molecule `Cc1nc2ccc(C(=O)N3CCC4(CC3)CC(=O)c3c(cnn3C(C)C)C4)cc2[nH]1` registered a kinetic solubility of more than 60 µg/mL.

`COC(=O)CNC(=O)c1nc(-c2ccc(Cl)nc2)c2cnccn12` registered a solubility (kinetic) of more than 61 µg/mL.

For the molecule `Cc1ccc2nc(-c3ccccn3)c(Nc3ccccc3C)n2c1`, the kinetic solubility is less than 1 µg/mL.

Consider `COc1ccc(CCNc2ncnc3c2c(-c2ccccc2)cn3-c2cccc(Cl)c2)cc1OC`, for which the kinetic solubility was less than 1 µg/mL.

With `CCCNC(=O)Nc1ccc(Oc2ncnc3cc(OC)c(OC)cc23)cc1Cl`, the kinetic solubility was 1.55 µg/mL (≈ 3.73 µM).

As for `Fc1ccc(Nc2nc(-c3ccncc3)ncc2-c2ccccc2)cc1F`, the kinetic solubility is less than 1 µg/mL.

As to `CN1CCC(N(Cc2cccs2)c2ccccc2)CC1`, the kinetic solubility is more than 42 µg/mL.

For `CC(C)Oc1cccc(C2CC(=O)Nc3cc4c(cc32)OCO4)c1` (stereo not drawn), the kinetic solubility amounted to 1.53 µg/mL (≈ 4.7 µM).
